Publication PMC4491662, “Synthesis, Biological Evaluation and Molecular Modeling of Substituted Indeno[1,2-b]indoles as Inhibitors of Human Protein Kinase CK2” (Pharmaceuticals, 2015)

Key:
NIH-3T3 = experiment: Cytotoxicity WST-1 assay on NIH-3T3; type: cell-based, mouse; settings: Mus musculus, NIH3T3, 96 h, read-out: EC50 in µM ± SD
From the text: (§1) Four cell lines of various origins were used to evaluate the cytotoxicity of our target compounds 5–7. The selected cell lines were (i) NIH-3T3, a cell line originally established from the primary mouse embryonic fibroblast cells, (ii) MEF, primary mouse embryonic fibroblasts (used at their early passages) prepared as previously described, (iii) WI-38, a human diploid cell line derived from normal embryonic lung tissue, and (iv) HEK293T, a transformed variant of the human embryonic kidney cell line HEK293. After 96 h, cytotoxicity was evaluated using the WST-1 assay. […] Seventeen compounds were evaluated on the cell lines and then compared to TBB used as a standard. […]. All cells were grown in DMEM medium supplemented with 10% fetal calf serum, glutamine (2 mM), penicillin (100 U/mL), and streptomycin (50 μg/mL) at 37 °C under a humidified 5% CO2 atmosphere (Gibco). The assays were performed in sterile 96-wells microtiter plates (Falcon). Cells were plated at 500 (NIH-3T3), 750 (WI-38) or 1000 (MEF; HEK293T) cells/100 µL/well. Drug solutions (10 μL per well) of appropriate concentration (prepared by dilution in the culture medium from 2 mM stock acetonitrile solution) were added 24 h after cell seeding. For ellagic acid and emodin, DMSO was used to prepare the stock solution. After 96 h, the cytotoxicity is evaluated using the Cell Proliferation Reagent WST-1 following the procedure described by the manufacturer (Roche Applied Science). The drugs were assayed at 10, 5, 1, 0.2 and 0.04 µM in triplicate. The vehicle was used as control. The experiments were repeated three times.

MEF = experiment: Cytotoxicity WST-1 assay on MEF; type: cell-based, mouse; settings: Mus musculus, 96 h, read-out: EC50 in µM ± SD
From the text: as §1

human CK2 holoenzyme [1] = biological target: T1, human CK2 holoenzyme (Homo sapiens, UniProt P68400); experiment: biochemical; settings: average percent inhibition at 10 µM
T1 sequence (P68400 whole entry): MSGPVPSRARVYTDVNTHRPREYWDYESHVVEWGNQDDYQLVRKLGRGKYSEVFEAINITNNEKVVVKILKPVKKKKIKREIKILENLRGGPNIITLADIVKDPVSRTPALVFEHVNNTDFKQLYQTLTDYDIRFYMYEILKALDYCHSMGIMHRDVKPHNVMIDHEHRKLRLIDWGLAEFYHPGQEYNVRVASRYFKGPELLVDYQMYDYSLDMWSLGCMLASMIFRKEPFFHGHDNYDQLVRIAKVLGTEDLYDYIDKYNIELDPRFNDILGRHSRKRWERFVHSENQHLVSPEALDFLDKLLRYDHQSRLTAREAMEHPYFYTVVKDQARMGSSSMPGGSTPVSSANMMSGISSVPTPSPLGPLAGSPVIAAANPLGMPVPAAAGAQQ
T1 sequence (P67870 whole entry partner): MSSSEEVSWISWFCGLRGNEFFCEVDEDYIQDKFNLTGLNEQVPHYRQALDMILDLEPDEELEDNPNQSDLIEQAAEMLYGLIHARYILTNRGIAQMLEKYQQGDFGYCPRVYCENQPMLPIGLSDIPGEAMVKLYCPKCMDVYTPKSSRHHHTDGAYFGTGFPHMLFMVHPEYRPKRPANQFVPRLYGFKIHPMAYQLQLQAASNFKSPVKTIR

HEK293T = experiment: Cytotoxicity WST-1 assay on HEK293T; type: cell-based, human; settings: Homo sapiens, HEK-293T, 96 h, read-out: EC50 in µM ± SD
From the text: as §1

[2] = Cytotoxicity WST-1 assay, statements over the four cell lines; type: cell-based; settings: mouse (NIH-3T3, MEF) and human (WI-38, HEK293T), WST-1, cell line not specified, read-out: EC50 (cytotoxic activity, over the cell lines)
From the text: as §1

WI-38 = experiment: Cytotoxicity WST-1 assay on WI-38; type: cell-based, human; settings: Homo sapiens, WI-38, 96 h, read-out: EC50 in µM ± SD
From the text: as §1

human CK2 holoenzyme [3] = biological target: T1, human CK2 holoenzyme; settings: read-out: IC50 ± SD, assay buffer with 100 µM ATP
[4] = tested on: tumor cell lines (5637, SISO, KYSE-70, MCF-7, LCLC, A427); settings: cited from earlier work

| Compound | EC50 (NIH-3T3) | EC50 (MEF) | inhibition at 10 µM (human CK2 holoenzyme [1]) | EC50 (HEK293T) | EC50 at 96 h [2] | EC50 (WI-38) | IC50 (human CK2 holoenzyme [3]) | growth of tumor cell lines [4] |
| --- | --- | --- | --- | --- | --- | --- | --- | --- |
| Cc1cc(=O)c2c(c1=O)c1c(=O)c3ccccc3c1n2C(C)C [Compound 7f, 5-Isopropyl-8-methyl-5H-indeno[1,2-b]indole-6,9,10-trione] | > 10 µM | > 10 µM | 72% | 4.4 ± 2.2 µM | 0.4 to 8.8 µM | > 10 µM | 4.9 ± 0.54 µM | – |
| CC(C)n1c2c(=O)ccc(=O)c2c2c(=O)c3ccccc3c21 [Compound 7h, 5-isopropyl-5H-indeno[1,2-b]indole-6,9,10-trione] | – | – | – | – | – | – | – | inhibited the growth |
